Assay results published in paper PMC3797794, “Identification and Characterization of a Novel Trehalose Synthase Gene Derived from Saline-Alkali Soil Metagenomes” (PLoS ONE, 2013).

Test system: T1, TreS (recombinant trehalose synthase)
T1 construct: pET-22b(+), E. coli BL21(DE3), Ni-NTA; His6 tag kept (C-terminal per Methods, N-terminal with 13 extra residues per Results)
Assay: HPLC-RID of sugars, Lineweaver-Burk
Type: biochemical, uncultured bacterium
Conditions: pH 9.0, 45 °C, 30 min, 200 mM sodium phosphate

Structure (SMILES) | Km [mM]
OC[C@H]1O[C@H](O[C@H]2O[C@H](CO)[C@@H](O)[C@H](O)[C@H]2O)[C@H](O)[C@@H](O)[C@@H]1O [trehalose] | 64 ± 3.5
OC[C@H]1O[C@H](O[C@H]2[C@H](O)[C@@H](O)C(O)O[C@@H]2CO)[C@H](O)[C@@H](O)[C@@H]1O (some centres unmarked) [maltose] | 9 ± 1.2
